Reference: the NIST ThermoML archive (doi:10.1021/je700308j)
Where “and” joins values, the source holds several entries; their conditions need not be identical. Equal entries are not always repeated. ± gives the expanded uncertainty stated by the source.

Columns and labels:
[1] = heat capacity at constant pressure per volume; xn = mol fraction of the nth substance listed; details: 298.15 K, 101 kPa, Liquid, Flow calorimetry
[2] = xn = mol fraction of the nth substance listed; details: 298.15 K, 101 kPa, Liquid
[3] = excess molar enthalpy (molar enthalpy of mixing); xn = mol fraction of the nth substance listed; details: 101 kPa, Liquid, Flow calorimetry

C1CCOC1 [tetrahydrofuran] + CCCO
Details	heat capacity, [1] [J/K/m3]	mass density, [2] [kg/m3]
x1 = 0.0482	1911000 ± 4000	804.27 ± 0.32
x1 = 0.103	1891000 ± 4000	809.19 ± 0.31
x1 = 0.1944	1858000 ± 4000	817.24 ± 0.3
x1 = 0.3022	1819000 ± 4000	826.44 ± 0.28
x1 = 0.3994	1782000 ± 4000	834.52 ± 0.27
x1 = 0.499	1742000 ± 4000	842.64 ± 0.26
x1 = 0.5994	1699000 ± 3000	850.66 ± 0.25
x1 = 0.7016	1654000 ± 3000	858.7 ± 0.24
x1 = 0.795	1610000 ± 3000	866.01 ± 0.23
x1 = 0.9017	1560000 ± 3000	874.29 ± 0.22
x1 = 0.9435	1541000 ± 3000	877.53 ± 0.21

C1CCCC1 [cyclopentane] + CCCCCCCCCCO
excess molar enthalpy, [3]
Details	x1 = 0.336	x1 = 0.465	x1 = 0.575	x1 = 0.67	x1 = 0.752	x1 = 0.89	x1 = 0.975
298.15 K	0.0786 kcal/mol and 0.0778 kcal/mol	0.0965 ± 0.00139 kcal/mol	0.104 ± 0.00146 kcal/mol	0.105 ± 0.00146 kcal/mol	0.101 ± 0.00136 kcal/mol	0.0851 ± 0.00117 kcal/mol	–
298.65 K	–	–	–	–	–	–	0.0495 ± 0.000717 kcal/mol

CCCCCCCCCCO [decan-1-ol] + C1CCOC1
Details	heat capacity, [1] [J/K/m3]	mass density, [2] [kg/m3]
x2 = 0.0904	1904000 ± 4000	828.17 ± 0.4
x2 = 0.2067	1869000 ± 4000	831.12 ± 0.37
x2 = 0.3967	1810000 ± 4000	837.35 ± 0.32
x2 = 0.5985	1734000 ± 4000	846.59 ± 0.28
x2 = 0.7992	1635000 ± 3000	860.14 ± 0.24
x2 = 0.8981	1573000 ± 3000	869.46 ± 0.22

C1CCCC1 [cyclopentane] + CCCCO
[3], 298.15 K
Details	excess molar enthalpy
x1 = 0.098	0.022 ± 0.000478 kcal/mol
x1 = 0.196	0.0427 ± 0.000765 kcal/mol
x1 = 0.294	0.0637 ± 0.0011 kcal/mol
x1 = 0.393	0.0857 kcal/mol and 0.0846 kcal/mol
x1 = 0.493	0.104 ± 0.0016 kcal/mol
x1 = 0.593	0.118 ± 0.00165 kcal/mol
x1 = 0.694	0.124 ± 0.00163 kcal/mol
x1 = 0.796	0.116 ± 0.00194 kcal/mol
x1 = 0.897	0.0941 ± 0.00263 kcal/mol
x1 = 0.949	0.0739 ± 0.00382 kcal/mol

C1CCCC1 [cyclopentane] + CCCCCCCO
[3], 298.15 K
Details	excess molar enthalpy
x1 = 0.143	0.0296 ± 0.000478 kcal/mol
x1 = 0.273	0.0554 ± 0.000956 kcal/mol
x1 = 0.392	0.0786 ± 0.00127 kcal/mol
x1 = 0.5	0.0937 ± 0.00139 kcal/mol
x1 = 0.6	0.104 ± 0.00143 kcal/mol
x1 = 0.692	0.106 ± 0.00141 kcal/mol
x1 = 0.778	0.102 ± 0.00151 kcal/mol
x1 = 0.857	0.0921 kcal/mol and 0.0923 kcal/mol
x1 = 0.931	0.075 ± 0.00287 kcal/mol
x1 = 0.966	0.0603 ± 0.00406 kcal/mol

C1CCOC1 [tetrahydrofuran] + CCCCCCCCO
Details	heat capacity, [1] [J/K/m3]	mass density, [2] [kg/m3]
x1 = 0.0608	1927000 ± 4000	823.33 ± 0.42
x1 = 0.088	1918000 ± 4000	824.18 ± 0.41
x1 = 0.1954	1884000 ± 4000	827.86 ± 0.37
x1 = 0.3048	1850000 ± 4000	832.05 ± 0.35
x1 = 0.4026	1817000 ± 4000	836.34 ± 0.32
x1 = 0.5009	1781000 ± 4000	841.27 ± 0.3
x1 = 0.6069	1737000 ± 4000	847.37 ± 0.28
x1 = 0.7044	1691000 ± 3000	853.86 ± 0.26
x1 = 0.7994	1640000 ± 3000	861.36 ± 0.24
x1 = 0.9	1580000 ± 3000	870.65 ± 0.22
x1 = 0.9523	1546000 ± 3000	876.26 ± 0.22

CCCCCCCO [heptan-1-ol] + C1CCOC1
Details	heat capacity, [1] [J/K/m3]	mass density, [2] [kg/m3]
x2 = 0.1103	1888000 ± 4000	822.54 ± 0.82
x2 = 0.2085	1859000 ± 4000	826.55 ± 0.71
x2 = 0.3123	1827000 ± 4000	831.18 ± 0.6
x2 = 0.4046	1797000 ± 4000	835.76 ± 0.52
x2 = 0.496	1765000 ± 4000	840.88 ± 0.45
x2 = 0.5973	1725000 ± 3000	847.05 ± 0.37
x2 = 0.6977	1680000 ± 3000	854.06 ± 0.32
x2 = 0.8031	1627000 ± 3000	862.49 ± 0.27
x2 = 0.9021	1572000 ± 3000	871.51 ± 0.23

CCCCCCO [hexan-1-ol] + C1CCOC1
Details	heat capacity, [1] [J/K/m3]	mass density, [2] [kg/m3]
x2 = 0.1191	1886000 ± 4000	820.48 ± 0.4
x2 = 0.1994	1862000 ± 4000	824.38 ± 0.38
x2 = 0.3032	1829000 ± 4000	829.77 ± 0.35
x2 = 0.3931	1800000 ± 4000	834.74 ± 0.32
x2 = 0.505	1759000 ± 4000	841.56 ± 0.3
x2 = 0.6028	1719000 ± 3000	848.03 ± 0.28
x2 = 0.6944	1678000 ± 3000	854.68 ± 0.26
x2 = 0.7937	1628000 ± 3000	862.57 ± 0.24
x2 = 0.8961	1574000 ± 3000	871.63 ± 0.22

C1CCCC1 [cyclopentane] + CCCCCCCCCO
[3], 298.15 K
Details	excess molar enthalpy [kcal/mol]
x1 = 0.171	0.0418 ± 0.000717
x1 = 0.316	0.0712 ± 0.00115
x1 = 0.442	0.091 ± 0.00134
x1 = 0.552	0.101 ± 0.00139
x1 = 0.649	0.104 ± 0.00139
x1 = 0.735	0.102 ± 0.00139
x1 = 0.812	0.0962 ± 0.00155
x1 = 0.881	0.0862 ± 0.0021
x1 = 0.943	0.07 ± 0.00335
x1 = 0.972	0.0548 ± 0.00526

C1CCOC1 [tetrahydrofuran] + CO
Details	heat capacity, [1] [J/K/m3]	mass density, [2] [kg/m3]
x1 = 0.0989	1907000 ± 4000	804.78 ± 0.42
x1 = 0.195	1850000 ± 4000	819.46 ± 0.38
x1 = 0.2967	1797000 ± 4000	832.35 ± 0.35
x1 = 0.4006	1747000 ± 4000	843.35 ± 0.32
x1 = 0.4848	1714000 ± 3000	851 ± 0.29
x1 = 0.5999	1667000 ± 3000	859.93 ± 0.27
x1 = 0.6968	1631000 ± 3000	866.37 ± 0.25
x1 = 0.7926	1594000 ± 3000	871.94 ± 0.23
x1 = 0.8946	1555000 ± 3000	877.17 ± 0.22

C1CCOC1 [tetrahydrofuran] + CCCCO
Details	heat capacity, [1] [J/K/m3]	mass density, [2] [kg/m3]
x1 = 0.0456	1918000 ± 4000	808.89 ± 0.28
x1 = 0.0951	1901000 ± 4000	812.34 ± 0.28
x1 = 0.1935	1867000 ± 4000	819.24 ± 0.27
x1 = 0.2997	1830000 ± 4000	826.84 ± 0.26
x1 = 0.3963	1794000 ± 4000	833.86 ± 0.26
x1 = 0.5009	1753000 ± 4000	841.67 ± 0.25
x1 = 0.5988	1711000 ± 3000	849.16 ± 0.24
x1 = 0.6962	1667000 ± 3000	856.68 ± 0.23
x1 = 0.8012	1615000 ± 3000	865.12 ± 0.22
x1 = 0.9017	1564000 ± 3000	873.45 ± 0.22
x1 = 0.9472	1541000 ± 3000	877.34 ± 0.21

C1CCCC1 [cyclopentane] + CCCCCCO
[3], 298.15 K
Details	excess molar enthalpy
x1 = 0.128	0.0277 ± 0.000478 kcal/mol
x1 = 0.249	0.0484 ± 0.000837 kcal/mol
x1 = 0.362	0.0707 ± 0.0012 kcal/mol
x1 = 0.469	0.0894 kcal/mol and 0.0897 kcal/mol
x1 = 0.57	0.102 ± 0.00146 kcal/mol
x1 = 0.665	0.108 ± 0.00143 kcal/mol
x1 = 0.756	0.105 ± 0.00148 kcal/mol
x1 = 0.841	0.0954 ± 0.00186 kcal/mol
x1 = 0.923	0.0778 ± 0.00263 kcal/mol
x1 = 0.962	0.0619 ± 0.00406 kcal/mol

CCCCCCCCC [nonane] + C1CCOC1
[3], 298.15 K
Details	excess molar enthalpy
x2 = 0.104	0.0714 ± 0.00115 kcal/mol
x2 = 0.197	0.124 ± 0.00191 kcal/mol
x2 = 0.355	0.189 ± 0.00263 kcal/mol
x2 = 0.485	0.213 ± 0.00263 kcal/mol
x2 = 0.595	0.212 ± 0.00263 kcal/mol
x2 = 0.688	0.195 ± 0.00311 kcal/mol
x2 = 0.768	0.169 ± 0.00382 kcal/mol
x2 = 0.837	0.134 ± 0.00502 kcal/mol
x2 = 0.898	0.0974 ± 0.00669 kcal/mol
x2 = 0.952	0.0514 kcal/mol and 0.0513 kcal/mol

C1CCCC1 [cyclopentane] + CCCCCO
[3], 298.15 K
Details	excess molar enthalpy [kcal/mol]
x1 = 0.113	0.0229 ± 0.000478
x1 = 0.223	0.0451 ± 0.000813
x1 = 0.33	0.0674 ± 0.00115
x1 = 0.434	0.0882 ± 0.00143
x1 = 0.535	0.105 ± 0.00155
x1 = 0.633	0.115 ± 0.00155
x1 = 0.728	0.115 ± 0.00155
x1 = 0.821	0.105 ± 0.00194
x1 = 0.912	0.0849 ± 0.00263
x1 = 0.956	0.0674 ± 0.00382

C1CCCC1 [cyclopentane] + CCCCCCCCO
[3], 298.15 K
Details	excess molar enthalpy [kcal/mol]
x1 = 0.157	0.0349 ± 0.000717
x1 = 0.295	0.0632 ± 0.00105
x1 = 0.418	0.0844 ± 0.00129
x1 = 0.528	0.0971 ± 0.00139
x1 = 0.626	0.104 ± 0.00139
x1 = 0.715	0.105 ± 0.00141
x1 = 0.796	0.0987 ± 0.00153
x1 = 0.87	0.0889 ± 0.00198
x1 = 0.938	0.0725 ± 0.00311
x1 = 0.97	0.0576 ± 0.00454

C1CCOC1 [tetrahydrofuran] + CCO
Details	heat capacity, [1] [J/K/m3]	mass density, [2] [kg/m3]
x1 = 0.0532	1907000 ± 4000	792.12 ± 17
x1 = 0.0989	1889000 ± 4000	798.14 ± 16
x1 = 0.2018	1849000 ± 4000	810.67 ± 13
x1 = 0.3084	1808000 ± 4000	822.54 ± 9.7
x1 = 0.4	1772000 ± 4000	832.02 ± 7.4
x1 = 0.5015	1731000 ± 4000	841.8 ± 5.2
x1 = 0.6074	1688000 ± 3000	851.3 ± 3.4
x1 = 0.711	1643000 ± 3000	860.02 ± 1.9
x1 = 0.8104	1599000 ± 3000	867.85 ± 0.98
x1 = 0.9048	1556000 ± 3000	875.03 ± 0.42
x1 = 0.9426	1540000 ± 3000	877.76 ± 0.29

CCCCCCCCCO [nonan-1-ol] + C1CCOC1
[2]
Details	mass density [kg/m3]
x2 = 0.1048	827.19 ± 0.83
x2 = 0.1889	829.58 ± 0.73
x2 = 0.3131	833.79 ± 0.6
x2 = 0.4067	837.47 ± 0.52
x2 = 0.504	841.9 ± 0.44
x2 = 0.6004	847.05 ± 0.37
x2 = 0.7009	853.33 ± 0.31
x2 = 0.7999	860.89 ± 0.27
x2 = 0.9015	870.34 ± 0.23
